Reference: patent US20120302607A1, “C4-SUBSTITUTED ALPHA-KETO OXAZOLES” (The Scripps Research Institute, priority 2008, published 2012)
Like-named read-outs stand apart in the source and are kept apart here.

Key:
[1] = target: T1, truncated rat FAAH (rFAAH) (Rattus norvegicus, UniProt P97612); experiment: Rat FAAH inhibition enzyme assay (14C-oleamide hydrolysis, Dixon plot); format: biochemical
T1 construct: The truncated rat FAAH (rFAAH) was expressed in E. coli and purified as described by Patricelli et al; made in house; host or cells: E. coli
T1 sequence (P97612 30-579 limits assumed): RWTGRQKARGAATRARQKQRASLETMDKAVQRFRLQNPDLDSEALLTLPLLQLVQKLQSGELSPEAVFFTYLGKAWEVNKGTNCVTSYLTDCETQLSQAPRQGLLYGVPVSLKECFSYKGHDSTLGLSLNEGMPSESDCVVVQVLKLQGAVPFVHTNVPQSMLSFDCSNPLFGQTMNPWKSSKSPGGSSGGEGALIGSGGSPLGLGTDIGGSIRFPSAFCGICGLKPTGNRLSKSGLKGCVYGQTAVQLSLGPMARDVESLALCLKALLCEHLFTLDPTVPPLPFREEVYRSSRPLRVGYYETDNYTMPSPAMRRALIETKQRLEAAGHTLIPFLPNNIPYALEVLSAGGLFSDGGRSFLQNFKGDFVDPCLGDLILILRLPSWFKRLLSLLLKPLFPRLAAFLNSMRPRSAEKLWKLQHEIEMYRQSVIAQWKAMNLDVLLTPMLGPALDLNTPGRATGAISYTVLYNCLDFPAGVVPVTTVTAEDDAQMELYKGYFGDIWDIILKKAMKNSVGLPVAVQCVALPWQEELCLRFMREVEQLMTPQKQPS
Method: The purified recombinant rFAAH was used in the inhibition assays unless otherwise indicated.
The ^14C-labeled oleamide (substrate) and oleic acid (product) were extracted with EtOAc and analyzed by TLC. The Ki of the inhibitor was calculated using a Dixon plot (standard deviations are provided in the Supporting Information tables).

[2] = tested on: membrane-associated hydrolase (KIAA1363); experiment: Proteome-wide serine hydrolase selectivity screening, KIAA1363; format: biochemical; details: value in parentheses; FAAH versus KIAA1363
[3] = target: T2, membrane-associated hydrolase (KIAA1363) (UniProt Q8BLF1); experiment: as above; format: biochemical; details: selectivity screening
T2 sequence (Q8BLF1 1-408): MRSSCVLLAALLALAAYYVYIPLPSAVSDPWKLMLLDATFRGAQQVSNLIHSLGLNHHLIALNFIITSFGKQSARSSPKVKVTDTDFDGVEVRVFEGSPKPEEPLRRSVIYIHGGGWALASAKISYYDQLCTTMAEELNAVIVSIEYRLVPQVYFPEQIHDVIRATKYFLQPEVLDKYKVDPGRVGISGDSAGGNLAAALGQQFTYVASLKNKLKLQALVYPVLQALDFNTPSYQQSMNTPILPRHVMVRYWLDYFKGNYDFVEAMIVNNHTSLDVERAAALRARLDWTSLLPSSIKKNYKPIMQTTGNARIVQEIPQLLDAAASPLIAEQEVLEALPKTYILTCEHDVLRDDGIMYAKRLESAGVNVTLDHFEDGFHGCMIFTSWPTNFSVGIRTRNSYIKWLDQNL

FAAH = target: T3, FAAH (UniProt O08914); experiment: Proteome-wide serine hydrolase selectivity screening, FAAH; format: biochemical, human
T3 sequence (O08914 1-579): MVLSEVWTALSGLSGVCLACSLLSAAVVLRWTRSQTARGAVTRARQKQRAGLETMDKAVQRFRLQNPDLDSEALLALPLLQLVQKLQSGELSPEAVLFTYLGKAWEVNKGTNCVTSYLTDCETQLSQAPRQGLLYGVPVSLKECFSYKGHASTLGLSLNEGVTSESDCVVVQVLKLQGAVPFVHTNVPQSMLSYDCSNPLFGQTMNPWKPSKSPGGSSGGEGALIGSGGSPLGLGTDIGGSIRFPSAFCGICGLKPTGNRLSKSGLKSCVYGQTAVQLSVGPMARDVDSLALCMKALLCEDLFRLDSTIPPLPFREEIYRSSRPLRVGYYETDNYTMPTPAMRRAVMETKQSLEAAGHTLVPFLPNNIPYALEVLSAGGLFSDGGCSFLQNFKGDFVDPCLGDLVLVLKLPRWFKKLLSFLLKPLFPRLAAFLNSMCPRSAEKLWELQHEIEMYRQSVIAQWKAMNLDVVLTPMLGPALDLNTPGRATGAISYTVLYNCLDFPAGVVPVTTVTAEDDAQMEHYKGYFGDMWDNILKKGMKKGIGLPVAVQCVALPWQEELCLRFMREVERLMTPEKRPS

[4] = target: T4, triacylglycerol hydrolase (TGH) (UniProt Q8VCT4); experiment: Proteome-wide serine hydrolase selectivity screening, TGH; format: biochemical, human; details: selectivity screening
T4 sequence (Q8VCT4 1-565): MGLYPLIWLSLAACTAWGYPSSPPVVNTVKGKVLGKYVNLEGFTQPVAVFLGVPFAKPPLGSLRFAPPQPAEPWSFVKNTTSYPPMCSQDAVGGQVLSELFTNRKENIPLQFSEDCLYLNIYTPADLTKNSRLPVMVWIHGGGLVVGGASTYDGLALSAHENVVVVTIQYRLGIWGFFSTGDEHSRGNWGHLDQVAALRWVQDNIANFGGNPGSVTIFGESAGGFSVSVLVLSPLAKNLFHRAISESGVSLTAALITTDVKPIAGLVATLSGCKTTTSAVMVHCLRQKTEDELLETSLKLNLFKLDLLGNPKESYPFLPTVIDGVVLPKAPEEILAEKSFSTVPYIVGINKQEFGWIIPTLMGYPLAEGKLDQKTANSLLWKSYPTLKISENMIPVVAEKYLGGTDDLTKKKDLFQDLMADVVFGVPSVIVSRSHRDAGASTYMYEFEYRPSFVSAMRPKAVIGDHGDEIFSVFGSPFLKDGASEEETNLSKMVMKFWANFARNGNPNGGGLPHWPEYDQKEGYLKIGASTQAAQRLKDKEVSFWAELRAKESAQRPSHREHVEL

[5] = tested on: triacylglycerol hydrolase (TGH); experiment: as above; format: biochemical, human; details: value in parentheses; FAAH versus TGH

- Ki ([1]; Table 1, purified recombinant rFAAH, pH 9.0, read-out: Rat FAAH inhibition Ki): 1.6 nM
- Ki ([1]; Table 2, read-out: FAAH Ki): 1.7 nM
- Ki ([1]; Table 4, value ± error, read-out: Ki, inhibition results with calculated errors): 1.6 ± 0.01 nM
- KIAA1363 (selectivity) [2]: (>700)
- IC50 [3]: > 100000 nM
- IC50 (FAAH): 140 nM
- IC50 [4]: 700 nM
- TGH (selectivity) [5]: (5)
SMILES: O=C(CCCCCCc1ccccc1)c1nc(-c2ccncc2)co1 [Compound 4m, 7-phenyl-1-(4-(pyridin-4-yl)oxazol-2-yl)heptan-1-one]
